The text below walks through data of patent publication US20250290915A1, “METHOD FOR PREDICTING RESPONSIVENESS TO THERAPY” (CANCERTAIN LIMITED, priority 2022, published 2025).

Assay type in all cases: cell-based, human
The subject of test [1] is Circulating Tumour Cells (CTCs) from a patient with colon cancer (sigmoid colon cancer). The test can be described thus: Drug response score assay on CTCs from blood, Example 8. The method, then:
(§1) CD45^+ cells and circulating tumour cells (CTCs) were isolated from a blood sample provided by each subject.
(§2) CD45 separation was performed by adding human CD45 microbeads (50 μl/ml blood), incubating for 15 minutes at 4° C. and then processing using an AutoMACS machine. This separates the blood sample into CD45^+ and CD45^−cells in 2 separate falcons. The falcon tubes are then centrifuged at 1200 rpm for 5 minutes.
(§3) The supernatant was removed from the CD45^−falcon tube, and the CD45^−cells contacted with 100 μl of FcR block and 100 μl of CD326 (EpCAM) MicroBeads, followed by incubation at […] 4° C. for 30 minutes. The CD45^−cells were then processed using an AutoMACS machine to separate the EpCAM positive and negative cells into 2 separate falcon tubes. The EpCAM-cells were discarded. The supernatant was removed from the EpCAM^+ cells, and the cells resuspended in DMEM with 2 μl Cell Tox, 2 μl MT and 2 μl MT. 20 μl of the resuspended pellet was then added to all sample wells excluding a blank. After all wells are added to, a cell count was conducted on the […] to determine the number of circulating tumour cells (CTCs).
(§4) After attachment, an initial imaging step was carried out using the RealTime-Glo™ MT assay from Promega (Catalogue No. G9711)) and the CellTox™ Green Cytotoxicity Assay (Promega, Catalogue No. G8741), carried out according to manufacturer's instructions. Following this initial imagining, the immunotherapeutic and/or chemotherapeutic agents were added to the cell populations as indicated below. After 10 minutes, the imagining step was repeated. The cell populations were then incubated at 37° C., 5% CO2 for 48 hours. The imaging step was then repeated. The cell populations were then re-dosed with the same immunotherapeutic and/or chemotherapeutic agents as indicated below, and incubated at 37° C., 5% CO2 for a further 48 hours. After this second 48 hour incubation, the imagining step was repeated for a final time.
(§5) At the end of this culture period, dose response scores were calculated using a normalized drug response metric as described in Gupta et al. (Communications Biology volume 3, Article number: 42 (2020), https://doi.org/10.1038/s42003-020-0765-z). The start readout for a given immunotherapeutic or chemotherapeutic agent at a given concentration was the to readout for said immunotherapeutic or chemotherapeutic agent at a specified concentration. The end readout for a given immunotherapeutic or chemotherapeutic agent at a given concentration was the final timepoint reading (t96h) for said immunotherapeutic or chemotherapeutic agent at a specified concentration.
(§6) The positive control start readout for a given drug/concentration was the to readout for the corresponding drug at a specified concentration. The positive control end readout for the corresponding drug at a specified concentration was the final timepoint reading (t96h) for the corresponding blank well.
(§7) The negative control start and end readouts for a given immunotherapeutic or chemotherapeutic agent at a given concentration were the to and final timepoint reading (t96h) respectively for blank cell or blank immuno cell well respectively.
(§8) The sensitivity or resistance of a subject's cancer to a given immunotherapeutic or chemotherapeutic agent was determined based on the calculated drug response score as shown in Table 2.
Blood samples from a patient with colon cancer (sigmoid colon cancer) were received on 8 Mar. 2022 and tested using a 9 drug panel.
Chemotherapeutic agents were tested as in Table 24.

Test [2] concerns Circulating Tumour Cells (CTCs) from a patient with sex cord stromal tumour, ovarian tumour. The test can be described thus: Drug response score assay on CTCs from blood, Example 4. Further details: key to Drug response score, conc. 1 / Drug response score, conc. 2 / Drug response score, conc. 3 / Drug response score, conc. 4: normalized drug response metric (Gupta et al. 2020). The settings on record: for Drug response score, conc. 1: conc. 1: Cyclo 2.5 μg/ml, Vinc 10 ng/ml, Etop 1 μg/ml, Bini 100 ng/ml, Doxo 10 ng/ml; for Drug response score, conc. 1 / Drug response score, conc. 2 / Drug response score, conc. 3 / Drug response score, conc. 4: CTCs, t96h; for Drug response score, conc. 2: conc. 2: Cyclo 10 μg/ml, Vinc 20 ng/ml, Etop 4 μg/ml, Bini 200 ng/ml, Doxo 30 ng/ml; for Drug response score, conc. 3: conc. 3: Cyclo 40 μg/ml, Vinc 40 ng/ml, Etop 20 μg/ml, Bini 400 ng/ml, Doxo 90 ng/ml; for Drug response score, conc. 4: conc. 4: Cyclo 160 μg/ml, Vinc 80 ng/ml, Etop 100 μg/ml, Bini 800 ng/ml, Doxo 270 ng/ml; for effectiveness on Circulating Tumour Cells (CTCs) under laboratory conditions / Drug sensitivity as calculated by the assay (interpretation of Drug Response Scores): sex cord stromal / ovarian tumour CTCs; for Drug sensitivity as calculated by the assay (interpretation of Drug Response Scores): Table 14. The method, then:
as §1, §2, §3
as §4, with “The different cell types were each divided equally into populations, depending on the number of drugs/concentrations to be tested and plated on a cell-culture plate pre-coated with a scaffold of polycaprolactone (PCL) electrospun fibres and incubated at 37° C., 5% CO2, for 5 to (typically 10) minutes to facilitate cell attachment. After attachment,” for “After attachment,”
as §5, §6, §7, §8
Blood samples from a patient with sex cord stromal tumour, ovarian tumour (epitheliod neoplasm, stage 3 recurrence after surgery (resection) and previous chemotherapy) were received on 19 Jul. 2021 and tested using a 5 drug panel. […]

The subject of test [3] is cancer cells derived from the tissue sample of a patient with osteosarcoma. The test can be described thus: Drug response score assay on tissue sample, Example 10. Further details: key to Drug response score, conc. 1 / Drug response score, conc. 2 / Drug response score, conc. 3 / Drug response score, conc. 4: normalized drug response metric per Gupta et al. 2020. The following applies: tissue sample; for Drug response score, conc. 1: conc. 1 per Table 31: Etop 1, DTIC 1.5, Ifos 0.125, Doce 0.02, Irinotecan 5 μg/ml; for Drug response score, conc. 2: conc. 2 per Table 31: Etop 4, DTIC 3, Ifos 0.25, Doce 0.2, Irinotecan 10 μg/ml; for Drug response score, conc. 3: conc. 3 per Table 31: Etop 20, DTIC 6, Ifos 5, Doce 2, Irinotecan 25 μg/ml; for Drug response score, conc. 4: conc. 4 per Table 31: Etop 100, DTIC 12, Ifos 10, Doce 10, Irinotecan 50 μg/ml. The method, then:
Where a tissue sample was provided by each subject, cancer stem cells (CSCs, CD133^+), were isolated from said sample. Tumour marker cells were further isolated from each tissue sample. The remaining cells were designated tumour marker^+ cells.
First, disaggregation of the tissue samples was carried out. Disaggregation was dependent on the size of the tissue sample and the method of retrieval: • EBUS (Endobronchial Ultrasound Scan and Biopsy)—very small fragments of tissue in solution-spun at 1200 rpm for 5 minutes to collect tissue pellet • Bronchoscopy-larger fragments with larger amount of blood vessels • Broncho-lavage-similar to EBUS, spun at 1200 rpm for 5 minutes to collet tissue pellet
Once a pellet of tissue obtained, DMEM added to the tissue pellet and the material forced through a […] Smart strainer. Once a cell suspension was achieved, this was spun at 1200 rpm for 5 minutes and the supernatant removed. The cells were then resuspended to a volume of 60 μl.
20 μl of FcR block and 20 μl of CD133 microbeads were added to the resuspended cells, followed by incubation for 15 minutes at 4° C. The cells were then processed using an AutoMACS machine. This separates the […] into CD133^+ and CD133^− cells in 2 separate falcons. The falcon tubes are then centrifuged at 1200 rpm for 5 minutes.
The supernatant was removed from the CD133+falcon tube, and the cells resuspended in DMEM with 2 μl Cell Tox, 2 μl MT and 2 μl MT. 20 μl of the resuspended […] was then plated in each well which will contain an immunotherapy treatment.
The supernatant was removed from the CD133^− falcon tube, and the CD133^− cells contacted with 40 μl of a tumour separation microbeads cocktail containing microbeads bound to anti-CD31, anti-CD45, anti-Glycophorin-A (Gly-A) and an anti-fibroblast antibody.
This cocktail is used to separate out tumour marker cells using MACS, by separating out CD31^+, CD45^+ and Gly-A^+ cells. In addition, anti-fibroblast antibody-labelled beads are also used. The cocktail is added to the CD133^− falcon tube, followed by incubation for 15 minutes at 4° C. MACS is carried out using an AutoMACS machine. This cells which are not bound by the CD31, CD45, Gly-A and anti-fibroblast antibody beads are the tumour marker^+ cells.
as §4, with “The different cell types were each divided equally into populations, depending on the number of drugs/concentrations to be tested and plated on a cell-culture plate pre-coated with a scaffold of polycaprolactone (PCL) electrospun fibres and incubated at 37° C., 5% CO2, for 5 to (typically 10) minutes to facilitate cell attachment. After attachment,” for “After attachment,”
At the end of this culture period, dose response scores were calculated using a normalized drug response metric as described in Gupta et al. (Communications Biology volume 3, Article number: 42 (2020), https://doi.org/10.1038/s42003-020-0765-z). The start readout for a given immunotherapeutic or chemotherapeutic agent at a given concentration was the to readout for said immunotherapeutic or chemotherapeutic agent at a specified concentration. […]

`O=P1(N(CCCl)CCCl)NCCCO1` (centres unmarked) [Cyclophosphamide]: the “Drug response score, conc. 1” value in test [1] (conc. 1 of each drug as in Table 24, CTCs, t96h) is recorded as −0.3176. Moreover, in test [1] (conc. 2 of each drug as in Table 24, CTCs, t96h), the “Drug response score, conc. 2” value was 0.9581. Further, the “Drug response score, conc. 3” value in test [1] (conc. 3 of each drug as in Table 24, CTCs, t96h) amounted to 0.6810. The “Drug response score, conc. 4” value in test [1] (conc. 4 of each drug as in Table 24, CTCs, t96h) stood at 2.5058. Also, the “effectiveness on Circulating Tumour Cells under laboratory conditions” value in test [1] (sigmoid colon cancer CTCs) is on record as “S+”. Moreover, in test [1] (sigmoid colon cancer CTCs, Table 26), the “Drug sensitivity as calculated by the assay (interpretation of Drug Response Scores)” value (“Drug sensitivity as calculated” below) is reported as “Sensitive (S+)”. Further, in test [2], the “Drug response score, conc. 1” value was found to be 0.97; the “Drug response score, conc. 2” value is on record as 0.58; the “Drug response score, conc. 3” value is reported as 0.41; the “Drug response score, conc. 4” value was determined as 0.94. Besides, in test [2], the “effectiveness on Circulating Tumour Cells (CTCs) under laboratory conditions” value is given as “show effectiveness” and the “Drug sensitivity as calculated” value is on record as “Sensitive (S++)”.

Consider `CCc1c2c(nc3ccc(OC(=O)N4CCC(N5CCCCC5)CC4)cc13)-c1cc3c(c(=O)n1C2)COC(=O)[C@]3(O)CC` [Irina], for which, in test [3], the “Drug response score, conc. 1” value is on record as −0.0303; the “Drug response score, conc. 2” value is recorded as −0.1454; the “Drug response score, conc. 3” value is recorded as 0.2672; the “Drug response score, conc. 4” value is recorded as −0.0433.

Consider `CC[C@]1(O)C[C@H]2CN(CCc3c([nH]c4ccccc34)[C@@](C(=O)OC)(c3cc4c(cc3OC)N(C=O)[C@H]3[C@@](O)(C(=O)OC)[C@H](OC(C)=O)[C@]5(CC)C=CCN6CC[C@]43[C@@H]65)C2)C1` [Vincristine], for which, in test [2], the “Drug response score, conc. 1” value worked out at 3.35; the “Drug response score, conc. 2” value stood at 1.24; the “Drug response score, conc. 3” value amounted to 1.83; the “Drug response score, conc. 4” value worked out at 1.29. For the same compound, in test [2], the “effectiveness on Circulating Tumour Cells (CTCs) under laboratory conditions” value is recorded as “not effective” and the “Drug sensitivity as calculated” value was “Resistant”.

Take `CN(C)/N=N/c1[nH]cnc1C(N)=O` [DTIC]: in test [3], the “Drug response score, conc. 1” value is listed as −0.7928; the “Drug response score, conc. 2” value amounted to 0.4035; the “Drug response score, conc. 3” value is on record as −0.0520; the “Drug response score, conc. 4” value is reported as 0.1714.
